Reference: patent US9895345B2, “Use of Lappaol F to inhibit tumor cell growth” (The Research Foundation Foundation for the State University …, priority 2013, dated 2018)
Entries after “also recorded” stand apart in the source; their conditions may differ.

Legend:
c-Myc, MDM2 and HuR = assay: Oncogenic protein expression by Western blotting; format: cell-based, Human; conditions: 50 μM
Description: FIG. 8: Lappaol F down regulates the expression of several oncogenic proteins commonly overexpressed in human cancers and linked to oncogenic transformation. A-C. Lappaol F suppresses the expression of c-Myc (A), MDM2 (B) and HuR (C). Cells were untreated (“C”) or treated with Lappaol F (50 μM) for the indicated times and Western blot analyses were performed using the indicated antibodies.
(§1) Western blotting was done by standard protocols. Sources of the antibodies are as follows: antibodies for p21 and GAPDH were from Santa Cruz Biotechnology (Santa Cruz, Calif.); cyclin B1 antibody was from BD bioscience (San Jose, Calif.); p27 antibody was from Cell Signaling Technology (Danvers, Mass.). CDK1 and CDK2 were from Assay Biotechnology (Sunnyvale, Calif.). Northern blot analysis was performed. and a full-length p21 cDNA was used as a probe for detecting the expression of p21 mRNA.

[1] = tested on: p21 promoter in RKO p53-deficient (p53-/-) cells; assay: p21 promoter luciferase assay; format: cell-based, Human; conditions: 50 μM, 24 hours
Description: (§2) FIG. 6: Lappaol F induces p21-promoter activation in cells with wild-type p53 and defective-p53. A&B MCF-7, MDA-MB-231 and RKO cells were untreated (DMSO) or treated with Lappaol F (50 μM) for 48 hrs; cells were then split into two parts; one part was used to analyze p21 mRNA expression by Northern blotting (A) and another part was utilized for p21 protein analysis by Western blotting (B). A full-length p21 cDNA was used as a probe for Northern blot analysis. C & D. p21 promoter luciferase activity in Lappaol F-treated and untreated cells with different p53 status. RKO and MCF-7 cells express the wild type-p53 protein whereas MDA-MB-231 expressing the mutant-p53. Hela cells harbor human papilloma virus; and p53 protein is not functional in these cells. Cells, transfected with p21 promoter luciferase construct, were untreated (DMSO) or treated with Lappaol F (50 μM) for 24 hours then analyzed for luciferase activity.
(§3) Luciferase assays were performed as follows. Briefly, cells transiently transfected with the p21-promoter luciferase construct were treated with or without Lappaol F (50 μM). Twenty-four hours later, luciferase activity of each cell lysate was analyzed using the Luciferase assay system (Thermo Scientific, Rockford, Ill.) with LUMAT LB9507 luminometer (Berthold Technologies, Germany).

[2] = tested on: p21 promoter in RKO p53-proficient (p53+/+) cells; assay: p21 promoter luciferase assay; format: cell-based, Human; conditions: 50 μM, 24 hours
Description: as §2, §3

HeLa cells = assay: Flow cytometry cell cycle analysis; format: cell-based, Human; conditions: 50 μM, 72 hrs
Description: (§4) FIG. 2: Lappaol F induces G1 and G2 cell cycle arrest. (A) Flow cytometry cell cycle analyses performed on cells treated with vehicle (DMSO) or Lappaol F (50 μM) for 72 hrs. (B) DAPI staining of RKO cells treated with Lappaol F (50 μM) for 72 hours. The number of mitotic cells over the total cells (mitotic index, MI) is also shown.
(§5) Cell cycle profile was determined by flow cytometry as follows. For determining the mitotic index, cells treated with or without Lappaol F were stained with 4′, 6-diamidino-2-phenylindole (DAPI). The number of mitotic cells was counted under a fluorescence microscope. Over 600 cells were counted in each sample and experiments were repeated at least three times.

RKO cells [3] = assay: Flow cytometry cell cycle analysis; format: cell-based, Human; conditions: 50 μM, 72 hrs
Description: as §4, §5

MCF-7 cells [4] = assay: Flow cytometry cell cycle analysis; format: cell-based, Human; conditions: 50 μM, 72 hrs
Description: as §4, §5

MDA-MB-231 cells [5] = assay: Flow cytometry cell cycle analysis; format: cell-based, Human; conditions: 50 μM, 72 hrs
Description: as §4, §5

wild-type p53 = assay: Wild-type p53 expression by Western blotting; format: cell-based, Human
Description: (§6) FIG. 7: Lappaol F suppresses expression of mutant-p53 by reducing its half-life. A-C. Lappaol F has minimal effect on wild-type p53 protein expression in cells (MCF-7 and RKO) expressing wild-type p53 (A & C); however, Lappaol F strongly reduces mutant-p53 protein expression in MDA-MB-231, MDA-MB-468 and T47D cells (B & C). D & E. Treatment of Lappaol F reduces mutant-p53 protein half-life in MDA-MB-231 cells. Cells were first treated with or without with Lappaol F (50 μM) for 24 hours, cycloheximide (50 μg/ml) was then added into the cell culture medium for 0-8 hours and cells were harvested at 0, 2, 4, 6 and 8 hours after cycloheximide was added. Samples were subjected to Western blot analysis and the half-life of mutant p53 for cells treated with or without Lappaol F was determined F & G. Lappaol F decreases mutant p53 protein half-life in T47D cells. Mutant-p53 half-life was determined as described.
as §1, with “Northern blot analysis was performed. and a full-length p21 cDNA was used as a probe for detecting the expression of p21 mRNA.” left out

[6] = tested on: MCF10A non-cancerous breast epithelial cells; assay: MTT assay / phase contrast microscopy on non-tumorigenic cells; format: cell-based, Human; conditions: 50 μM, 3 days or prolonged to six days
Description: (§7) FIG. 1: A. The chemical structure of Lappaol F. B & C. […] Cells shown were treated with or without Lappaol F (50 μM) for 72 hours. D & E. Results of 3-[4, 5-dimethylthiazol-2-yl]-2, 5-diphenyl tetrazolium bromide (MTT) assays showing Lappaol F inhibits tumor cell growth in time- and dose-dependent manners in different cancer cell lines. F & G. MCF10A non-tumorigenic breast epithelial cells treated with Lappaol F (50 μM) for 3 days (F) or 6 days (G). After treatment, cells were harvested for MTT assays (G) or photographs were taken under a phase contrast microscope (F). H. Results of colony formation assay showing that Lappaol F inhibits colony formation by A549 (lung), HCT116 (colon) and DU145 (prostate) tumor cells. I-N. Results of MTT assays showing Lappaol F suppresses cell growth in leukemia, melanoma and sarcoma cell lines.
(§8) MTT cell proliferation assays were performed as follows. Briefly, cells seeded in 12-well plate with or without drug treatment were incubated with 0.5 mg/ml 3-[4, 5-dimethylthiazol-2-yl]-2, 5-diphenyl tetrazolium bromide (MTT) for 1-4 hours. The resulting formazan precipitate was dissolved in isopropanol with 0.04 M HCl. Absorbance was read with a Bio-Rad SmartSpec 3100 at 570 nm with background subtraction read at 690 nm.

HeLa tumor xenografts = assay: HeLa xenograft tumor growth in nude mice; format: in vivo, BALB/c nude mice
Source text: All animal studies were approved and performed according to Animal Care and Use Guidelines of the Animal Ethics Committee at Guangzhou University of Chinese Medicine (Document No. syxk (Yue) 2008-0001). BALB/c nude mice (female, 4-5 weeks old) were first subcutaneously injected with 5×10^6 of HeLa cells on the back to establish tumor xenografts. Nine-days after tumor cell injection, mice with tumor volume of 90 mm^3-290 mm^3 were randomized into 3 groups; the average initial tumor volumes in each treatment group of mice were 161.28±23.9 mm^3 (for vehicle control), 160.7±17 7 mm^3 (for mice treated with Lappaol F 5 mg/kg) and 144.5±20 5 mm^3 (for mice treated with Lappaol F 10 mg/kg), respectively. Mice were then treated with Lappaol F (5 mg/kg/d, N=7; or 10 mg/kg/d, N=6) or with equivalent volume of vehicle (5% DMSO plus 5% Tween 80 in 5% glucose solution, 5 mL/kg/day, N=7) by intravenous injection for 15 days. Tumor size was monitored by measuring two perpendicular diameters with a caliper every 4 days. The tumor volume was calculated as volume=length×width^2×0.5. Cases of death and body weight in mice were monitored daily. The animal experiments were terminated on day 15 (tumor size exceeded a mean diameter of 20 mm in control animals) by sacrificing mice according to the guidelines. Tumor xenografts were then stripped and weighed. All results were expressed as Mean±standard error of the mean (SEM). Effects of various treatments were analyzed using the ONE-WAY ANOVA analysis and P-values <0.05 were considered statistically significant.

[7] = tested on: tumor cell lines of different tissue types; assay: Initial cytotoxic screening (colony formation, microscopy); format: cell-based, Human; conditions: colon, breast, lung, cervix lines; 50 μM, 72 hours
Description: as §7

RKO cells [8] = assay: Mitotic index by DAPI staining; format: cell-based, Human; conditions: 50 μM, 72 hours
Description: as §4, §5

[9] = tested on: caspases 8 and 9 in MCF-7 cells; assay: Caspase activation by Western blotting; format: cell-based, Human; conditions: 50 μM
Description: (§9) FIG. 4: Effect of Lappaol F on caspase activation. The indicated cells were treated with vehicle (DMSO) or Lappaol F (50 μM) for indicated time. Activation of caspases 8, 9 and 3 (indicated by reduced levels of procaspases) was analyzed by Western blotting using indicated antibodies. “C”: vehicle-treated control.
as §1

[10] = tested on: caspases 8, 9 and 3 in HeLa cells; assay: Caspase activation by Western blotting; format: cell-based, Human; conditions: 50 μM
Description: as §9, §1

[11] = tested on: caspases 8, 9 and 3 in MDA-MB-231 cells; assay: Caspase activation by Western blotting; format: cell-based, Human; conditions: 50 μM
Description: as §9, §1

mutant-p53 = assay: Mutant-p53 expression by Western blotting; format: cell-based, Human
Description: as §6
as §1, with “Northern blot analysis was performed. and a full-length p21 cDNA was used as a probe for detecting the expression of p21 mRNA.” left out

RKO cells [12] = assay: MTT cell proliferation assay; format: cell-based, Human; conditions: read-out: estimated absolute EC50 of cell growth suppression
Description: as §8

MCF-7 cells [13] = assay: MTT cell proliferation assay; format: cell-based, Human; conditions: read-out: estimated absolute EC50 of cell growth suppression
Description: as §8

MDA-MB-231 cells [14] = assay: MTT cell proliferation assay; format: cell-based, Human; conditions: read-out: estimated absolute EC50 of cell growth suppression
Description: as §8

[15] = tested on: p21, p27, CDK2, cyclin B and CDK1; assay: Cell cycle regulatory protein expression by Western blotting; format: cell-based, Human; conditions: 50 μM, different cell lines
Description: FIG. 3: Regulation of key cell cycle regulatory proteins by Lappaol F. A-D. The indicated cells were treated with vehicle (DMSO) or Lappaol F (50 μM) for indicated time and protein expression of different cell cycle regulatory protein was analyzed by Western blotting. “C”: vehicle-treated control.
as §1

[16] = tested on: p21 promoter (RKO, MCF-7, Hela, MDA-MB-231); assay: p21 promoter luciferase assay in four cell lines; format: cell-based, Human; conditions: 50 μM, 24 hours
Description: as §2, §3

COc1cc([C@H]2Oc3c(OC)cc(C[C@H]4COC(=O)[C@@H]4Cc4cc(OC)c5c(c4)[C@H](CO)[C@@H](c4ccc(O)c(OC)c4)O5)cc3[C@@H]2CO)ccc1O [Lappaol F]
expression of c-Myc, MDM2 and HuR oncoproteins (c-Myc, MDM2 and HuR): strongly down-regulates | upregulation of p21 promoter activity [1]: 8.3 folds | induction of the p21 promoter [2]: 3.5 fold | cell cycle arrest phase (HeLa cells): predominantly arrested in 2N G1-phase | sub-2N cell death population (sub-G1) (HeLa cells): 15% | cell cycle arrest phase (RKO cells [3]): mainly arrested in 4N G2- (or M)-phase | cell cycle arrest phase (MCF-7 cells [4]): predominantly arrested in 2N G1-phase | cell cycle arrest phase (MDA-MB-231 cells [5]): mainly arrested in 4N G2- (or M)-phase | levels of wild-type p53 (wild-type p53; MCF-7 cells): no significant influence | expression levels of wild-type-p53 (wild-type p53; RKO cells): did not significantly affect | cytotoxicity towards MCF10A non-cancerous breast epithelial cells [6]: minimal cytotoxicity | inhibition of tumor growth relative to vehicle (HeLa tumor xenografts; 5 mg/kg/day i.v., 15 days): 54% | inhibition of tumor growth relative to vehicle (HeLa tumor xenografts; 10 mg/kg/day i.v., 15 days): 64% | lethality / body weight change in mice (HeLa tumor xenografts; 5 and 10 mg/kg/day i.v., 15 days): without significant body weight changes; also recorded: did not observe lethality or weight loss | effect on HeLa xenografts by intraperitoneal injection (HeLa tumor xenografts; intraperitoneal injection): did not show any significant effect | growth inhibitory effect against tumor cell lines [7]: strong growth inhibitory effect | mitotic nuclei (mitotic index) (RKO cells [8]): no mitotic nuclei were observed | caspase activation [9]: no clear evidence of caspase activation | caspase activation [10]: elicited caspases 9 and 3 activation | caspase activation [11]: activation of caspases 8, 9 and 3 was observed | levels of mutant-p53 (mutant-p53; MDA-MB-231 cells): significantly reduced | mutant-p53 expression (mutant-p53; MDA-MB-468 and T47D cells): strongly inhibited | EC50 (RKO cells [12]): 25.2 µM | EC50 (MCF-7 cells [13]): 13.3 µM | EC50 (MDA-MB-231 cells [14]): 16.8 µM | expression levels of CDK inhibitors p21 and p27 [15]: strikingly elevated | levels of CDK2, cyclin B and CDK1 [15]: clearly reduced | p21 promoter activity [16]: significantly enhanced
